Laboratory results as given in patent publication US7575882B2, “Compositions and methods for identifying modulators of TRPV2” (Janssen Pharmaceutica N. V., priority 2005, dated 2009).
Several values for one entry are separate records, joined by “and”; a condition that tells them apart may be missing. Equal values may be shown once.

Tests used:
rat TRPV2 = target: T1, rat TRPV2 (Rattus norvegicus, UniProt Q9WUD2, A713V/L151P/T158I); assay: FLIPR calcium mobilization assay in rat TRPV2-expressing HEK293 cells; assay type: cell-based
T1 construct: A cDNA fragment encoding the full-length rat TRPV2 was subcloned into pCI-neo; expressed in transfected cells
T1 sequence (Q9WUD2 1-761 L151P/T158I/A713V): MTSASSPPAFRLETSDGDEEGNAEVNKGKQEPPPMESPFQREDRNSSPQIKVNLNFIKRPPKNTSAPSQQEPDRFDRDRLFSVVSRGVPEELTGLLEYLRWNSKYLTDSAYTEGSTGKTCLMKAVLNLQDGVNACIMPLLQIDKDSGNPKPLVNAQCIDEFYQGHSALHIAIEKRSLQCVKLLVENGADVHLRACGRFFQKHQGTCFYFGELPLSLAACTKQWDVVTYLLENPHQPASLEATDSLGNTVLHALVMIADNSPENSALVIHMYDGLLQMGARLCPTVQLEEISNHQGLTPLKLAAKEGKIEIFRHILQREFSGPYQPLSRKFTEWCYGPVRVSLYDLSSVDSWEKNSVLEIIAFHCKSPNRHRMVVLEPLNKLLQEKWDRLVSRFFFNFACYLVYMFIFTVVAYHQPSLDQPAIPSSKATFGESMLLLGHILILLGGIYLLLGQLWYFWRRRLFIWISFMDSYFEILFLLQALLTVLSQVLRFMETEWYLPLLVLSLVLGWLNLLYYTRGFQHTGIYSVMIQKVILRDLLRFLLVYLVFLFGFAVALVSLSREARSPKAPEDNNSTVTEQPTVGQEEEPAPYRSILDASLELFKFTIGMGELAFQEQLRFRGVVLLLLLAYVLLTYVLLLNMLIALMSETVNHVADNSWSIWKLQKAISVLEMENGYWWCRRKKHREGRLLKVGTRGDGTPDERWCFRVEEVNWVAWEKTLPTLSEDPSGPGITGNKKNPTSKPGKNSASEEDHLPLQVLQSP
Experimental: A cDNA fragment encoding the full-length rat TRPV2 was subcloned into pCI-neo (Promega, Madison, Wis.) mammalian expression vector. The expression construct was then transfected into HEK293 cells with FuGene6 transfection reagent (Roche, Indianapolis, Ind.) according to the vendor's protocol. Stable cell lines were selected by growth in the presence of 400 μg/ml G418. Single G418 resistant clones were isolated and purified.
The rat TRPV2-expressing HEK293 cells were seeded in a 384-well plate at a concentration of 5×10^3 cells/well and incubated overnight at 37° C. The following day, the cells were loaded with buffer and calcium dye 3 (Molecular Devices, Sunnyvale, Calif.) in a final volume of 50 μl and incubated for 30 minutes at 37° C./5% CO2 followed by 30 additional minutes at room temperature. The fluorescence intensity was measured by a fluorescent plate reader (FLIPR) before, during and after the addition of test compounds.
All data was normalized to that observed for 100 μM Δ^9-THC.

[1] = tested on: untransfected HEK293 cells; assay: FLIPR calcium assay in untransfected HEK293 cells (control); assay type: cell-based; conditions: 100 μM

Q: With Delta-9-tetrahydrocannabinol [Δ^9-THC] as the substance, how does the “elevation of intracellular Ca2+ in rat TRPV2-expressing HEK293 cells” value (rat TRPV2; 100 μM) read?
A: The value was “robust elevation of intracellular Ca^2+”.

Q: And the “% Response (activation of rat TRPV2)” value (rat TRPV2; 100 μM compound (anandamide 120 μM), normalized to 100 μM Δ^9-THC)?
A: Its value is 100%.

Q: What about the “Hill slope of rat TRPV2 activation” value (rat TRPV2; FLIPR concentration-response, FIG. 4B) of the same substance?
A: The value was 1.04.

Q: And the EC50 (rat TRPV2; FLIPR, rat TRPV2-expressing HEK293 cells, read-out: EC50 (activation of rat TRPV2))?
A: Its EC50 is 15.7 µM and 15.5 µM.

Q: What about the “elevation of intracellular Ca2+ in untransfected HEK293 cells” value [1] of the same substance?
A: Its value is “no significant intracellular Ca^+ elevation”.
